Reference: patent US7674954B2, “DNA constructs that contain Helianthus annuus Hahb-10 gene coding sequence, method for generating plants with a shortened life cycle and a high tolerance to herbicidal compounds and transgenic plants with that sequence” (Universidad Nacional del Litoral, priority 2006, dated 2010)

What was measured:
[1] = tested on: 35S-Hahb10 transgenic Arabidopsis plants; test: Stem elongation after gibberellin spraying, Hahb-10 overexpressing plants; assay type: in vivo, Arabidopsis thaliana
Protocol: (§1) Stem height was measured with a ruler in non transformed (1) or 35S-Hahb10 transgenic plants (2: line A; 3: line B and 4: line C). Grey bars represent three transgenic lines and white bars represent wild-type plants. Right series in each panel represent GA3 treated plants while left series represent their non-treated counterparts. […] Arabidopsis transgenic or wild-type plants were grown under normal illumination conditions for 15 days. After this, the plants were sprayed with 200 μM GA3. This treatment was repeated at day 25. Stem length was measured in 20- and 30-day-old plants with a ruler. […] In order to investigate the response of Hahb-10 overexpressing lines to this hormone, we treated plants with 200 μM gibberellins as described above.

[2] = tested on: Hahb-10 transcript levels; test: Northern blot of Hahb-10 transcript levels in treated sunflower seedlings; assay type: in vivo, Helianthus annuus
Protocol: 2A: Total RNA samples (20 μg each) extracted from 4-day-old seedlings subjected to different treatments as described later were hybridized with a ^32P-labeled Hahb-10 cDNA specific probe (A, upper panel). The same filter was hybridized with an rRNA probe as a control for RNA loading and transfer. Spots obtained with the specific probe were quantified in reference to their rRNA using Image Pro Plus software. […] Quantitation of the signals has been done taking as standard value the signal obtained in these seedlings because the signal obtained in control seedlings was almost not detectable by the software used for this purpose. 2B: Total RNA samples (20 μg each) extracted from 7-day-old seedlings grown in normal illumination conditions (lane 1), in the dark (lane 2), or under continuous illumination at 40 cm from the light source applied to 4-day-old seedlings germinated in the dark during 3 additional days (lane 3) were analyzed by electrophoresis, transferred onto nylon membranes and hybridized with a ^32P-labelled Hahb-10 cDNA specific probe (upper panel). The same filter was hybridized with an rRNA probe as a control for RNA loading and transfer (lower panel). […]

[3] = tested on: non-transformed (wild-type) Arabidopsis plants; test: Stem elongation after gibberellin spraying, non-transformed plants; assay type: in vivo, Arabidopsis thaliana
Protocol: as §1

[4] = tested on: transgenic Arabidopsis thaliana expressing the Hahb-10 gene; test: Herbicide (methyl viologen) spraying, Hahb-10 transgenic plants; assay type: in vivo; conditions: 10 to 30 μM methyl viologen sprayed on 21-day-old plants; three independent transgenic lines; dose-dependent
Protocol: (§2) Treatments with the herbicide Paraquat were carried out by growing transgenic and wild-type 21-day-old plants under normal conditions and spraying them with methyl viologen at concentrations of 10, 20 or 30 μM.
(§3) In order to study the effect of Hahb-10 overexpression on the tolerance to herbicides, transgenic and wild-type 21-day-old Arabidopsis thaliana were grown under normal conditions and were sprayed with methyl viologen at concentrations of 10, 20 or 30 μM. Once sprayed, they were left at the same illumination and temperature conditions for 24 hours and, at that time, leaf impairment was easily observable. One week after MV treatment, chlorophyll content in the leaves from both genotypes was analyzed. Plants were allowed to recover for three days and the percentage of survivors, either wild-type or transgenic ones expressing the Hahb-10 gene, was recorded.

[5] = tested on: wild-type Arabidopsis thaliana; test: Herbicide (methyl viologen) spraying, non-transformed plants; assay type: in vivo; conditions: 10 to 30 μM methyl viologen sprayed on 21-day-old plants, correlating to concentration
Protocol: as §2, §3

C=C1C[C@]23C[C@@]1(O)CC[C@H]2[C@@]12C=C[C@H](O)[C@@](C)(C(=O)O1)[C@H]2[C@@H]3C(=O)O [gibberellins, gibberellic acid]
increase in stem length with respect to non-treated controls ([1]; 200 μM gibberellins sprayed, 5 days after the first treatment (20-day-old plants)): 1.6 fold
stem elongation induction on average ([1]; 200 μM gibberellins, after the second treatment (30-day-old plants)): 1.2 fold
Hahb-10 transcript levels raised with respect to the heat-shock treatment ([2]; 100 μM gibberellic acids, Northern blot normalised to rRNA): 5 fold
increase in stem elongation with respect to non-treated controls ([3]; 200 μM gibberellins sprayed, 5 days after the first treatment (20-day-old plants), non-transformed plants): 3.7 fold
stem elongation induction on average ([3]; 200 μM gibberellins, after the second treatment (30-day-old plants), wild-type plants): 1.5 fold

C[n+]1ccc(-c2cc[n+](C)cc2)cc1 [methyl viologen]
effect of herbicide treatment on plants [4]: resistant
effect of herbicide treatment on plants [5]: dramatically affected

OC[C@H]1O[C@@](CO)(O[C@H]2O[C@H](CO)[C@@H](O)[C@H](O)[C@H]2O)[C@@H](O)[C@@H]1O [sucrose]
effect on Hahb-10 mRNA levels ([2]; sucrose 10% w/v, similar to slight enhancement by heat/cold shock, water stress, hypoxia): produced a similar effect
